Structures are written as SMILES.

In one assay the test system is HCT116 cells xenograft. Kind of assay: HCT116 xenograft in nude mice. Type of assay: in vivo, mouse. The following applies: i.p. twice a week, vs control; for Tumor volume, in combination with CDDP: CDDP 2 mg/kg plus GL 400 mg/kg (day 22) or GlucoGL 100 mg/kg (from day 15). As to the method:
All protocols for animal experiments in this study were approved by the Experimental Animal Committee of Keio University School of Medicine (approval number: 08024-(13), approval date: 30 September 2020). HCT116 cells (2 × 10^6 cells/mouse) with half of Matrigel (Corning, NY, USA) were transplanted subcutaneously into the flank of 7-week-old nude mice. Four days after the transplantation, tumor size was measured in three dimensions with calipers and grouped by tumor volume. CDDP (2 mg/kg), GL (400 mg/kg), or GlucoGL (100 mg/kg) were administered to the mice intraperitoneally, and the tumor volume was measured twice a week for 22 days.

Another assay deals with EGF signaling. In words: EGF signaling (western blot) in HuH7 cells. The following applies: HuH7, EGF for 5 min. It is filed as cell-based, human. As to the method:
For analysis of EGFR signaling, cells were incubated overnight with GL or GlucoGL, and then EGF (100 ng/mL) was added for 5 min. Cells were lysed with RIPA buffer, and the lysates were subjected to SDS-PAGE and visualized through western blotting using antibodies against PGRMC1, EGFR, phospho-Y1068 EGFR, AKT, phospho-S473AKT, ERK, and phospho-T185 Y187 ERK.
(In general: Immunoblotting shows a protein as a band on a membrane.)

Assay [1] has as its target T1, interaction between PGRMC1 and LDLR (Homo sapiens, UniProt O00264).
T1 construct: mammalian FLAG-tagged expression vector pCMV-FLAG-PGRMC1 (full-length); expressed in transfected cells; host or cells: HCT116
In words: Co-immunoprecipitation of PGRMC1 and LDLR in HCT116 cells. Type of assay: cell-based. The following applies: HCT116, FLAG-PGRMC1 co-IP, 12 h treatment. The procedure:
(§1) An expression vector of pCMV-3xFLAG-PGRMC1 or an empty vector was transfected into HCT116 cells or HuH7 cells using the transfection reagent Lipofectamine 2000 (Invitrogen). The cells were incubated overnight with either GL or GlucoGL. Cells were then lysed with NP40 lysis buffer (20 mM Tris-HCl [pH 7.5], 150 mM NaCl, and 1% NP40). The lysates were incubated with 10 μL of equilibrated anti-FLAG (M2) agarose for 60 min at room temperature. Bound proteins were washed three times and subjected to SDS-PAGE and visualized through western blotting using antibodies against FLAG, EGFR, and LDLR. For analysis of the endogenous PGRMC1-binding with FLAG-PGRMC1, HCT116 cells (1 × 10^7 cells) were treated with vehicle or 250 μM SA and/or 10 μM hemin for 48 h, and the cell lysates were co-immunoprecipitated with anti-FLAG (M2) agarose. Bound proteins (endogenous PGRMC1 and FLAG-tagged PGRMC1) were visualized through western blotting using antibody against PGRMC1.

For assay [2], the system named is EGFR signaling (phosphorylation of EGFR, AKT, ERK). In words: EGF-induced EGFR signaling (western blot) in HCT116 cells. Conditions: for EGF-induced phosphorylation of EGFR, AKT and ERK: HCT116, EGF 100 ng/mL for 5 min. Type of assay: cell-based, human. From the text:
[…] Cells were lysed with RIPA buffer, and the lysates were subjected to SDS-PAGE and visualized through western blotting using antibodies against PGRMC1, EGFR, phospho-Y1068 EGFR, AKT, phospho-S473AKT, ERK, and phospho-T185 Y187 ERK.

Assay [3] has as its system LDL uptake in HCT116 cells. Kind of assay: Alexa Fluor 488-labelled LDL uptake in HCT116 cells. Type of assay: cell-based, human. The following applies: HCT116, microscopy and flow cytometry, 5 min. As to the method: For the analysis of EGF and LDL uptake, HCT116 cells were incubated with serum-free DMEM supplemented with Alexa Fluor 488 EGF complex or Alexa Fluor 488 acetylated LDL to a final concentration of 1 µg/L at 37 °C for 5 min. For immunofluorescence microscopy analyses, HCT116 cells treated with Alexa Fluor 488-labeled EGF or LDL were fixed with 4% paraformaldehyde for 20 min and incubated in 10 mg/L DAPI for 15 min. The cells were observed using a BZ-x800 fluorescence microscope (Keyence, IL, USA). For flow cytometry analysis, HCT116 cells treated with Alexa Fluor 488-labeled EGF or LDL were detached using trypsin/EDTA and suspended in PBS. The mean fluorescent intensity per 10,000 cells was analyzed using a flow cytometer (Gallios, Beckman Coulter Life Science, Pasadena, CA, USA). The data were analyzed using Kaluza 2.1 analysis software (Beckman Coulter Life Science).
(In general: Flow cytometry measures light scatter and fluorescence of single cells or particles in a stream.)

A further assay deals with T2, heme-dimerized PGRMC1 (Homo sapiens, UniProt O00264).
T2 construct: human PGRMC1 intracellular domain residues 43-195; GST (N, cleaved yes); made in house; host or cells: E. coli BL21 (DE3)
T2 sequence (O00264 43-195): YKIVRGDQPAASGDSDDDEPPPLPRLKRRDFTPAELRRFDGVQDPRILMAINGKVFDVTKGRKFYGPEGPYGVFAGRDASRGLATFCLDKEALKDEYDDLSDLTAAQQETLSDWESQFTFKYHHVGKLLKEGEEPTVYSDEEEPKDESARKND
In words: ITC binding to heme-dimerized PGRMC1. Conditions: for Kd / TΔS / ΔG / ΔH: ITC; for Kd: 298 K, 50 mM phosphate pH 7.0, heme-dimerized PGRMC1 (WT); for TΔS / ΔG / ΔH: heme-dimerized PGRMC1 (WT).

In assay [4] the target is T3, interaction between PGRMC1 and EGFR (Homo sapiens, UniProt O00264).
T3 construct: mammalian FLAG-tagged expression vector pCMV-FLAG-PGRMC1 (full-length); expressed in transfected cells; host or cells: HCT116 or HuH7
T3 sequence (O00264 whole entry): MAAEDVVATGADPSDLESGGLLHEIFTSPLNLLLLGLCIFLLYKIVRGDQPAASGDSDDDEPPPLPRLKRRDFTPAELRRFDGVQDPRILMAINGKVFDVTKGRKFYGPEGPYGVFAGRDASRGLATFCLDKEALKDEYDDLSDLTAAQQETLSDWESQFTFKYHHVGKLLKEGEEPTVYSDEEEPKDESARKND
Kind of assay: Co-immunoprecipitation of PGRMC1 and EGFR in HCT116 cells. It is filed as cell-based. The following applies: HCT116, FLAG-PGRMC1 co-IP, 12 h treatment. As to the method: as §1

T1 sequence (O00264 whole entry): as above
Procedure for heme-dimerized PGRMC1: Expression vectors for PGRMC1 point mutants were generated by site-directed mutagenesis with PCR.
Protein expression was induced by adding 1 mM isopropyl-β-thiogalactopyranoside (IPTG) and incubating at 37 °C for 4 h. After harvesting cells, the cell pellets were then resuspended in buffer containing 20 mM Tris-HCl (pH 7.5), 100 mM NaCl, and 0.1% Tween 20, sonicated twice at 4 °C for 5 min, and centrifuged at 20,000× g for 30 min. The supernatant was incubated with glutathione Sepharose 4B (GE Healthcare, Chicago, IL, USA) for 1 h at 4 °C. The resin was then washed five times with the same buffer, and the GST tag cleaved by adding Precision Protease (GE Healthcare) and incubating at 4 °C for 16 h. Apo-PGRMC1 or HMGB1 proteins was purified using size-exclusion chromatography in a Superdex 200 column (GE Healthcare). Heme-bound PGRMC1 was prepared by treating with 100 μM hemin and then purified using size-exclusion chromatography.
GL derivatives were dissolved in 3 mM ITC-Buffer and titrated into 100 μM apo-PGRMC1, heme-bound-PGRMC1, or HMGB1 protein. Titration was performed by injecting 2 µL of the syringe solution at intervals of 120 s. Binding isotherms were analyzed using SEDPHAT [35]. The binding of AG205 to apo- or heme-PGRMC1 (100 μM) was analyzed using a concentration of 3 mM containing 1% DMSO.

Regarding `CC1(C(=O)O)CCC2(C)CCC3(C)C(=CC(=O)C4C5(C)CCC(OC6OC(C(=O)O)C(O)C(O)C6OC6OC(CO)C(O)C(O)C6O)C(C)(C)C5CCC43C)C2C1` (centres unmarked) [Glucoglycyrrhizin (GlucoGL), Glucoglycyrrhizin], the “Tumor volume, in combination with CDDP” value with HCT116 cells xenograft is reported as “significantly suppressed the tumor volume”. For the same compound, the EGF signaling result with EGF signaling is “suppressed the EGF signaling”. Moreover, the “Interaction between PGRMC1 and LDLR” value in assay [1] is “inhibited this interaction more potently”. The “EGF-induced phosphorylation of EGFR, AKT and ERK” value in assay [2] is recorded as “significantly suppressed”. Moreover, the “EGF signaling, time-course” value in assay [2] (HCT116, early phase of EGF stimulation (5 or 10 min)) is listed as “remarkable inhibitory effect”. The Labelled-LDL uptake result in assay [3] is “significantly suppressed”. On heme-dimerized PGRMC1, the Kd came to 1.38 µM, the TΔS turned out to be 7.44 K·kcal/mol, the ΔG was -8.00 kcal/mol and the ΔH was -0.56 kcal/mol. The “Interaction between PGRMC1 and EGFR” value in assay [4] is “inhibited the interaction more potently”.
Turning to `CC1(C)[C@@H](O[C@H]2O[C@H](C(=O)O)[C@@H](O)[C@H](O)[C@H]2O[C@@H]2O[C@H](C(=O)O)[C@@H](O)[C@H](O)[C@H]2O)CC[C@]2(C)[C@H]3C(=O)C=C4[C@@H]5C[C@@](C)(C(=O)O)CC[C@]5(C)CC[C@@]4(C)[C@]3(C)CC[C@@H]12` [Glycyrrhizin (GL), Glycyrrhizin], in the assay with HCT116 cells xenograft (22 days, CDDP 2 mg/kg, GL 400 mg/kg), the “Tumor volume, administered individually” value was “no differences in tumor volume”. In addition, the “Tumor volume, in combination with CDDP” value with HCT116 cells xenograft is “significantly smaller”. In the assay with EGF signaling, the EGF signaling entry is given as “suppressed the EGF signaling”. The “Interaction between PGRMC1 and LDLR” value in assay [1] was “inhibited”. Moreover, the “EGF-induced phosphorylation of EGFR, AKT and ERK” value in assay [2] was “significantly suppressed”. The Labelled-LDL uptake result in assay [3] is “significantly suppressed”. Moreover, at heme-dimerized PGRMC1, the Kd came out at 52.7 µM, the TΔS amounted to 4.61 K·kcal/mol, the ΔG is -5.84 kcal/mol and the ΔH was -1.23 kcal/mol. The “Binding to heme-dimerized PGRMC1 relative to binding to HMGB1” value on heme-dimerized PGRMC1 (ratio of KD HMGB1 / PGRMC1) stood at 4.23 times. Also, the “Interaction between PGRMC1 and EGFR” value in assay [4] is given as “inhibited”.

As a reminder, the Kd is the concentration at which binding is half-saturated.

Values taken from paper PMC8269059, “Glycyrrhizin Derivatives Suppress Cancer Chemoresistance by Inhibiting Progesterone Receptor Membrane Component 1” (Cancers, 2021).
